These results are taken from paper PMC10451632, “Site Mutation Improves the Expression and Antimicrobial Properties of Fungal Defense” (Antibiotics, 2023).

Each structure is given as a SMILES string. Values after ≈ are worked out from the molar mass of the structure shown. Where two headings read alike, the source gives them in different places. Marks after values point to notes of the source that are not given here. Some results are limits rather than exact numbers.

Experiment [1] has as its system S. aureus ATCC 43300. As to the kind of experiment: Time-killing curves. Format: cell-based, Staphylococcus aureus. As to the method:
S. aureus ATCC 43300 was cultured to the logarithmic stage, MHB medium was used for adjusting the concentration of bacterial suspension, and PN7 (1×, 2× and 4× MIC), Plectasin (1×, 2× and 4× MIC) and 2× MIC vancomycin (the MIC was 1 μg/mL) were added into the suspensions containing 10^5 CFU/mL bacteria (after the count of viable bacteria detection, the initial inoculation amount was 5.15 Log10 CFU/mL), cultured at 37 °C and 250 rpm. A 100 CFU/mL is considered the detection limit. […] In contrast, the count was reduced by 1.6 Log10 CFU/mL after treatment with 2× MIC vancomycin, an approximately 66% population decrease of target pathogens compared with the PN7 treatment group at the same time point of the second hour. After 4 h, the colony number of the peptide treatment group was almost 0, while that of the vancomycin treatment group was 0 after 8 h, at 4 h later than the PN7 treatment. At 24 h, the number of colonies of only 1× MIC Plectasin treatment group rebounded, while no such phenomenon occurred in the other treatment groups.
S. aureus ATCC 43300 was cultured to the logarithmic stage. MHB medium adjusted the concentration of bacterial suspension, and PN7 (1×, 2× and 4× MIC) was added into the suspensions containing 10^5 CFU/mL bacteria, cultured at 37 °C and 250 rpm. 1×, 2×, 4× MIC Plectasin and 2× MIC vancomycin were used as positive controls, and the group treated without antibiotics was used as the blank controls. Then, 100 μL samples were taken at different time points and were continuously diluted and coated on MHA medium for colony counting. A 100 CFU/mL is considered the detection limit.

Experiment [2] has as its system S. aureus ATCC 43300. As to the kind of experiment: Membrane permeability, PI staining by FACS. It counts as cell-based, Staphylococcus aureus. As to conditions: 2× MIC, 10^8 CFU/mL, 37 °C. As to the method:
Figure 8 In vitro antimicrobial analysis of PN7. (A): Time-kill curve of PN7, Plectasin, and vancomycin against S. aureus ATCC. All experiments were performed in triplicate. (B): The PAE of 1×, 2× and 4× MIC of PN7 and vancomycin against S. aureus ATCC 43300 (the MIC values of PN7 and vancomycin against S. aureus ATCC 43300 were 8 μg/mL and 1μg/mL, respectively). All experiments were performed in triplicate. (C): The morphological influence of PN7 on S. aureus ATCC 43300 was observed by SEM. (D,E): The effects of PN7 (D) and Plectasin (E)) on membrane permeability were analyzed by FACS. The logarithmic phase S. aureus ATCC 43300 cells (10^8 CFU/mL) were incubated with or without 2× MIC peptide solutions at 37 °C at different times. All experiments were performed in triplicate. Ple stands for the Plectasin treatment group, Van stands for the vancomycin treatment group, and CK stands for the untreated group. TEXT PRINTED IN THE PICTURE: (D) PN7: 34.4% (2×; 90min); 31.2% (2×; 75min); 30.4% (2×; 60min); 19.2% (2×; 45min); 16.7% (2×; 30min); 1.94% (2×; 15min) | (E) Ple: 32.0% (2×; 90min); 27.4% (2×; 75min); 25.2% (2×; 60min); 12.8% (2×; 45min); 12.0% (2×; 30min); 2.11% (2×; 15min) DOUBTS OF THE COPYIST ABOUT THIS PICTURE: Panels D and E: the picture prints no measure for the percentages, only labels such as "2×PN7-90min: 34.4%" / Panels D and E: "CK: 0.54%" is the untreated control, not a substance, and was left out
The fluorescent dye propidium iodide (PI; Solarbio, Beijing, China) was used to detect the effect of PN7 on the membrane permeability of Staphylococcus aureus. The test method refers to the descriptions in previous studies.
On the technique in general: A flow cytometer gives signals particle by particle.

The next experiment relates to E. coli O157. The following applies: data cited from previous results; cited from earlier work. The text has this: (§1) Table 6 Antibacterial spectrum (MIC). | column: MIC (μg/mL) / Plectasin
Experiment [3] deals with Escherichia coli CVCC 195. The following applies: data cited from previous results; cited from earlier work.
Source text: as §1

Another experiment concerns P. aeruginosa CICC 21630. As to conditions: data cited from previous results; cited from earlier work.
Source text: as §1

The test system of the next experiment is S. aureus CVCC 546. As to conditions: data cited from previous results; cited from earlier work.
Source text: as §1

A further experiment has as its system S. aureus E48. The following applies: data cited from previous results; cited from earlier work.
Source text: as §1

The subject of another experiment is S. pullorum CVCC 1789. The following applies: data cited from previous results; cited from earlier work.
Source text: as §1

In experiment [4] the test system is Staphylococcus aureus ATCC 43300. The following applies: data cited from previous results; cited from earlier work.
Source text: as §1

In experiment [5] the test system is Streptococcus. suis CVCC 606. The following applies: data cited from previous results; cited from earlier work.
Source text: as §1

Experiment [6] has as its system Staphylococcus aureus ATCC 43300. As to the kind of experiment: microbe, parasite or virus in culture. It counts as cell-based. As to conditions: Staphylococcus aureus, ATCC43300; microtiter broth dilution, MHB, 10^5 CFUs/mL, 16–18 h at 37 °C; read-out: MIC. As to the method:
The experimental operation of the expression of the Plectasin variant in P. pastoris in well plates, shaking flasks, and 5 L level fermentation was performed as referenced in previous studies. Candidates were identified through three different levels of screening. Firstly, a large number of transformants were screened through well plates to induce expression and determined by the inhibition zone assay (against S. aureus ATCC 43300). Secondly, the transformants with obvious inhibition zones were sequenced to obtain protein sequence information, then induced expression at the shake level. The supernatant was collected and purified to obtain the target protein; the anti-Staphylococcus aureus activity of the protein was detected by a MIC assay. Finally, the codons of candidate sequences were optimized, the expression vector was reconstructed, the optimal transformers were obtained, and the high-density cultivation was performed in a 5 L fermenter. The final agent was determined by high protein yield and good activity (Figure 2).
The MIC value of PN7 against bacteria was determined by the microtiter broth dilution method. Briefly, bacteria grown to the exponential phase were diluted into MHB; subsequently, 90 μL of bacterial suspension (10^5 CFUs/mL) was mixed with 10 μL of different concentrations of PN7 in a sterilized 96-well microtiter plate (Nunc). MIC values were recorded after incubation for 16–18 h at 37 °C based on the lowest concentrations of peptides in which no visible bacterial growth was observed.
A general note: In broth dilution the organism is exposed to a series of concentrations in liquid medium.

Experiment [7] concerns S. aureus ATCC 43300. As to the kind of experiment: Post antibiotic effect (PAE). Format: cell-based, Staphylococcus aureus. The following applies: triplicate. The text has this:
The post-antibiotic effect reflects the inhibitory effect on the growth of pathogenic bacteria after short contact with drugs, which is related to the strength of the bactericidal activity of drugs. The test method of the PAE of PN7 against S. aureus ATCC 43300 refers to the descriptions in previous studies.

As for `CC[C@H](C)[C@@H]1NC(=O)[C@H](CO)NC(=O)[C@H](CCCCN)NC(=O)[C@@H]2CSSC[C@@H](C(=O)N[C@@H](Cc3ccc(O)cc3)C(=O)O)NC(=O)[C@H](CCCCN)NC(=O)[C@@H]3CSSC[C@H](NC(=O)[C@H](CCC(N)=O)NC(=O)[C@H](CCSC)NC(=O)[C@H](CC(=O)O)NC(=O)[C@H](CC(=O)O)NC(=O)[C@H](CCC(=O)O)NC(=O)[C@H](CC(=O)O)NC(=O)[C@H](Cc4c[nH]c5ccccc45)NC(=O)[C@@H]4CCCN4C(=O)CNC(=O)[C@H](CC(N)=O)NC(=O)[C@@H](NC(=O)CNC(=O)[C@H](Cc4ccccc4)NC(=O)CN)CSSC[C@H](NC(=O)[C@H](Cc4ccc(O)cc4)NC(=O)CNC(=O)CNC(=O)[C@H](CCCCN)NC(=O)[C@H](Cc4ccc(O)cc4)NC(=O)CNC(=O)[C@H](CCCCN)NC1=O)C(=O)N[C@@H](C)C(=O)N[C@@H](CCCCN)C(=O)NCC(=O)NCC(=O)N[C@@H](Cc1ccccc1)C(=O)N[C@@H](C(C)C)C(=O)N3)C(=O)N[C@@H](Cc1c[nH]cn1)C(=O)N[C@@H](CC(N)=O)C(=O)N[C@@H](Cc1c[nH]cn1)C(=O)N2` [Plectasin], the “number of colonies at 24 h” value with S. aureus ATCC 43300 [1] (1× MIC, time-kill) is “rebounded”. Moreover, the entries for the “PI-staining percentage of cells” value with S. aureus ATCC 43300 [2] (30 min), in the experiment on S. aureus ATCC 43300 [2] (60 min) and in the experiment on S. aureus ATCC 43300 [2] (90 min) were 12.0%, 25.2% and 32.0%, respectively. Further, the MIC in the experiment on E. coli O157 is >128 ^a μg/mL; in experiment [3] it was >128 ^a μg/mL; with P. aeruginosa CICC 21630 it was >128 ^a μg/mL; in the experiment with S. aureus CVCC 546, 16 ^a μg/mL; with S. aureus E48, 4 ^a μg/mL; in the experiment with S. pullorum CVCC 1789 it was >128 ^a μg/mL. The MIC in experiment [4] is reported as 4 ^a μg/mL; in experiment [5], 1 ^a μg/mL.
As to `CN[C@H](CC(C)C)C(=O)N[C@H]1C(=O)N[C@@H](CC(N)=O)C(=O)N[C@H]2C(=O)N[C@H]3C(=O)N[C@H](C(=O)N[C@H](C(=O)O)c4cc(O)cc(O)c4-c4cc3ccc4O)[C@H](O)c3ccc(c(Cl)c3)Oc3cc2cc(c3O[C@@H]2O[C@H](CO)[C@@H](O)[C@H](O)[C@H]2O[C@H]2C[C@](C)(N)[C@H](O)[C@H](C)O2)Oc2ccc(cc2Cl)[C@H]1O` [vancomycin, reference compound], in [6], the MIC worked out at 1 µg/mL (≈ 0.69 µM). The “reduction of bacterial counts during the first two hours” value in the experiment on S. aureus ATCC 43300 [1] (2× MIC, initial inoculum 5.15 Log10 CFU/mL, MHB, 37 °C, 250 rpm, triplicate) came to 1.6 Log10 CFU/mL. Further, the “time to kill 99% of S. aureus ATCC 43300” value in the experiment with S. aureus ATCC 43300 [1] (time-kill, 2× MIC) worked out at 8 h. In the experiment with S. aureus ATCC 43300 [1] (time-kill, detection limit 100 CFU/mL, vancomycin at 2× MIC), the “time after which the colony number was (almost) 0” value is reported as 8 h. In addition, the PAE in the experiment on S. aureus ATCC 43300 [7] (1× MIC) is recorded as 0.11 h; in the experiment on S. aureus ATCC 43300 [7] (2× MIC), 0.54 h; in the experiment with S. aureus ATCC 43300 [7] (4× MIC), 0.78 h.
